The target in experiment [1] is Recombinant Btk (Homo sapiens, UniProt Q06187). Nature of the experiment: Btk Kinase Assay (TR-FRET).
Experiment [2] deals with T1, phosphorylated Btk at Tyr223 in Ramos cells (Homo sapiens, UniProt Q06187).
T1 construct: determine the endogenous levels of phosphorylated Btk at Tyr223; endogenous in cells; host or cells: Ramos cells (CRL-1596, ATCC)
Nature of the experiment: Btk pY223 Cellular Assay (HTRF, Ramos cells). In kind it is cell-based. The conditions noted are these: 1 hour compound incubation, stimulated with pervanadate or Na3VO4, read-out: 1050 (nM) Btk pY223. On the procedure:
Btk pY223 cellular assay is a HTRF based assay intended to determine the endogenous levels of phosphorylated Btk at Tyr223. Phosphorylated Tyr223 is necessary for full activation of Btk.
Briefly, Ramos cells were serum starved in 0.5% FBS-containing RPMI1640 for 2 hours. Following starvation, the cells were incubated with compounds to be detected at various concentrations in a CO2 incubator for 1 hour. After incubation, cells were stimulated with 1 mM pervanadate (PV) or Na3VO4 (OV) for 20 min. Then, the cells were spinned down and lysed with 1× lysis buffer at RT for 10 min (4× lysis buffer supplied in the kit). During the incubation, 1× antibody mix was prepared by diluting anti-Btk-d2 and anti-pBtk-K in detection buffer (supplied in the kit). […] After that, 18 ul of cell lysate was transferred to the assay plate pre-loaded with antibody solution. After mixing gently and spinning briefly, the plate was sealed up and kept in dark at RT for 18 hours. The fluorescence emission was measured at two different wavelengths (665 nm and 620 nm) on a compatible HTRF reader (PHERAstar FS, BMG).
A general note: Time-resolved FRET reads energy transfer from a long-lived donor to a nearby acceptor.

T1 sequence (Q06187 whole entry): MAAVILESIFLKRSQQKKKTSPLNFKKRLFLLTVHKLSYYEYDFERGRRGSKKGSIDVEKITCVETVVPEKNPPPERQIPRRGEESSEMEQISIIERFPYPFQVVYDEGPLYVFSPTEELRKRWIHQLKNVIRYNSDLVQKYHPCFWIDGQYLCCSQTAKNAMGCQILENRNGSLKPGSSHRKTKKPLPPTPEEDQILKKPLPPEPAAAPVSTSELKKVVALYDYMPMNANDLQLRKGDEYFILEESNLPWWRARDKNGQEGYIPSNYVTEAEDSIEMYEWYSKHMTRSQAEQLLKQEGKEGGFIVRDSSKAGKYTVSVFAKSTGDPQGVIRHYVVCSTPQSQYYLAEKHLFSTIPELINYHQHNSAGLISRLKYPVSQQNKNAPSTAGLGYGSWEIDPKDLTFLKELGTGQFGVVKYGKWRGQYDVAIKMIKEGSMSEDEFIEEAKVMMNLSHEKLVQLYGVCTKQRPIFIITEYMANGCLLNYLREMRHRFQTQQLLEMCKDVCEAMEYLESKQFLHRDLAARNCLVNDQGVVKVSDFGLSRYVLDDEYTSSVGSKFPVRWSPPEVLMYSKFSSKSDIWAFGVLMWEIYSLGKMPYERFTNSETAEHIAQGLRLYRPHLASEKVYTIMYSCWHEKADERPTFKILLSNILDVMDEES
Chain of Recombinant Btk (Q06187 whole entry): as above

Take `C=CC(=O)NCCN1CCc2c(c(N)c(C(N)=O)n2-c2ccc(Oc3ccccc3)cc2)C1` [II-3, 5-(2-Acrylamidoethyl)-3-amino-1-(4-phenoxyphenyl)-4,5,6,7-tetrahydro-1H-pyrrolo[3,2-c]pyridine-2-carboxamide]: the IC50 in experiment [1] was 480 nM.
Regarding `CC=CC(=O)N1CCCC(n2nc(-c3ccc(Oc4ccccc4)cc3)c(C(N)=O)c2N)C1` (stereo not shown) [Compound I-5, 5-Amino-1-(1-(but-2-enoyl)piperidin-3-yl)-3-(4-phenoxyphenyl)-1H-pyrazole-4-carboxamide], the IC50 was 42.6 nM in experiment [2] and 2.5 nM in experiment [1].
As for `C=CC(=O)N1CCC[C@@H](n2nc(-c3ccc(OCC(C)C)cc3)c(C(N)=O)c2N)C1` [Compound I-20, (R)-1-(1-Acryloylpiperidin-3-yl)-5-amino-3-(4-isobutoxyphenyl)-1H-pyrazole-4-carboxamide], the IC50 in experiment [1] came to 0.49 nM.
As to `CN(C)C/C=C/C(=O)N1CCCC(n2nc(-c3ccc(Oc4ccccc4)cc3)c(C(N)=O)c2N)C1` (stereo not shown) [Compound I-4, (E)-5-Amino-1-(1-(4-(dimethylamino)but-2-enoyl)piperidin-3-yl)-3-(4-phenoxyphenyl)-1H-pyrazole-4-carboxamide], the IC50 in experiment [2] was 3.6 nM; in experiment [1] it was 0.56 nM.
With `C#CC(=O)N1CCCC(n2nc(-c3ccc(Oc4ccccc4)cc3)c(C(N)=O)c2N)C1` (stereo not shown) [Compound I-13, 5-Amino-3-(4-phenoxyphenyl)-1-(1-propioloylpiperidin-3-yl)-1H-pyrazole-4-carboxamide], the figures for the IC50 in experiment [2] and in experiment [1] were 7.5 nM and 0.21 nM, respectively.
On to `C=CC(=O)Nc1ccc2c(N)c(C(N)=O)n(-c3ccc(Oc4ccccc4)cc3)c2c1` [II-8, 6-Acrylamido-3-amino-1-(4-phenoxyphenyl)-1H-indole-2-carboxamide], for which the IC50 in experiment [1] stood at 210 nM.
Still for that read-out and setting: as for `C=CC(=O)N1CCCC(c2cn(-c3ccc(Oc4ccccc4)cc3)c(C(N)=O)c2N)C1` (stereo not shown) [II-10, 4-(1-Acryloylpiperidin-3-yl)-3-amino-1-(4-phenoxyphenyl)-1H-pyrrole-2-carboxamide], the figure is 2.7 nM.
Still for that read-out and setting: the value for `C=CC(=O)N1Cc2c(N)c(C(N)=O)n(-c3ccc(Oc4ccc(C(C)(C)C)cc4)cc3)c2C1` [II-6, 5-Acryloyl-3-amino-1-(4-(4-(tert-butyl)phenoxy)phenyl)-1,4,5,6-tetrahydropyrrolo[3,4-b]pyrrole-2-carboxamide] was 34 nM; that for `N#C/C=C/CN1CCCC(n2nc(-c3ccc(Oc4ccccc4)cc3)c(C(N)=O)c2N)C1` (stereo not shown) [Compound I-11, (E)-5-Amino-1-(1-(3-cyanoallyl)piperidin-3-yl)-3-(4-phenoxyphenyl)-1H-pyrazole-4-carboxamide] was 7.6 nM; that for `N#CCC(=O)N1CCCC(n2nc(-c3ccc(Oc4ccccc4)cc3)c(C(N)=O)c2N)C1` (stereo not shown) [Compound I-9, 5-Amino-1-(1-(2-cyanoacetyl)piperidin-3-yl)-3-(4-phenoxyphenyl)-1H-pyrazole-4-carboxamide] was 22 nM.
For `C=CC(=O)N1CCC[C@@H](n2nc(-c3ccc(Cl)cc3)c(C(N)=O)c2N)C1` [Compound I-14, (R)-1-(1-Acryloylpiperidin-3-yl)-5-amino-3-(4-chlorophenyl)-1H-pyrazole-4-carboxamide], the IC50 in experiment [2] was 3.3 nM; in experiment [1], 0.54 nM.
On to `C=CC(=O)N1Cc2c(N)c(C(N)=O)n(-c3ccc(Oc4ccccc4)cc3)c2C1` [II-5, 5-Acryloyl-3-amino-1-(4-phenoxyphenyl)-1,4,5,6-tetrahydropyrrolo[3,4-b]pyrrole-2-carboxamide], for which, in experiment [1], the IC50 is 9 nM.
As to `C=CC(=O)N1CCc2c(c(N)c(C(N)=O)n2-c2ccc(Oc3ccccc3)cc2)C1` [II-1, 5-Acryloyl-3-amino-1-(4-phenoxyphenyl)-4,5,6,7-tetrahydro-1H-pyrrolo[3,2-c]pyridine-2-carboxamide], the IC50 in experiment [2] stood at 16.6 nM; in experiment [1], 3.3 nM.
For `NC(=O)c1c(N)c(C2CCNCC2)cn1-c1ccc(Oc2ccccc2)cc1` [II-9, 3-Amino-1-(4-phenoxyphenyl)-4-(piperidin-4-yl)-1H-pyrrole-2-carboxamide], the IC50 in experiment [1] was determined as 7600 nM.
Same read-out and setting: as for `CN(C)C(=O)/C=C/CN1CCCC(n2nc(-c3ccc(Oc4ccccc4)cc3)c(C(N)=O)c2N)C1` (stereo not shown) [Compound I-10, (E)-5-Amino-1-(1-(4-(dimethylamino)-4-oxobut-2-enyl)piperidin-3-yl)-3-(4-phenoxyphenyl)-1H-pyrazole-4-carboxamide], the figure is 18 nM.
As to `C=CC(=O)N1CCC[C@@H](n2nc(-c3ccc(OC)cc3)c(C(N)=O)c2N)C1` [Compound I-16, (R)-1-(1-Acryloylpiperidin-3-yl)-5-amino-3-(4-methoxyphenyl)-1H-pyrazole-4-carboxamide], the IC50 in experiment [2] was 17.7 nM; in experiment [1] it was 1.4 nM.
As for `C=CC(=O)N1CCc2c(c(N)c(C(N)=O)n2-c2ccc(OCc3ccccc3)cc2)C1` [II-4, 5-Acryloyl-3-amino-1-(4-(benzyloxy)phenyl)-4,5,6,7-tetrahydro-1H-pyrrolo[3,2-c]pyridine-2-carboxamide], the IC50 in experiment [1] is 25 nM.
As for `C=CC(=O)N1CCC[C@@H](n2nc(-c3ccc(C)c(OC)c3)c(C(N)=O)c2N)C1` [Compound I-15, (R)-1-(1-Acryloylpiperidin-3-yl)-5-amino-3-(3-methoxy-4-methylphenyl)-1H-pyrazole-4-carboxamide], the IC50 in experiment [2] turned out to be 0.3 nM; in experiment [1], 0.24 nM.
With `C=CC(=O)N1CC2(CC(n3nc(-c4ccc(Oc5ccccc5)cc4)c(C(N)=O)c3N)C2)C1` [Compound I-19, 1-(2-Acryloyl-2-azaspiro[3.3]heptan-6-yl)-5-amino-3-(4-phenoxyphenyl)-1H-pyrazole-4-carboxamide], the IC50 in experiment [1] amounted to 0.15 nM.
As for `C=CC(=O)N1CCC[C@@H](n2nc(-c3ccc(OC(C)C)cc3)c(C(N)=O)c2N)C1` [Compound I-18, (R)-1-(1-Acryloylpiperidin-3-yl)-5-amino-3-(4-isopropoxyphenyl)-1H-pyrazole-4-carboxamide], in experiment [1], the IC50 amounted to 2.4 nM.
With `C=CC(=O)N1CCC[C@@H](n2nc(-c3ccc(OCC4CC4)cc3)c(C(N)=O)c2N)C1` [Compound I-17, (R)-1-(1-Acryloylpiperidin-3-yl)-5-amino-3-(4-(cyclopropylmethoxy)phenyl)-1H-pyrazole-4-carboxamide], the IC50 in experiment [1] came out at 0.92 nM.
With `N#C/C=C\CN1CCCC(n2nc(-c3ccc(Oc4ccccc4)cc3)c(C(N)=O)c2N)C1` (stereo not shown) [Compound I-12, (Z)-5-Amino-1-(1-(3-cyanoallyl)piperidin-3-yl)-3-(4-phenoxyphenyl)-1H-pyrazole-4-carboxamide], the IC50 in experiment [1] was determined as 18 nM.
For `NC(=O)c1c(-c2ccc(Oc3ccccc3)cc2)nn(C2CCCN(C(=O)CCl)C2)c1N` (stereo not shown) [Compound I-6, 5-Amino-1-(1-(2-chloroacetyl)piperidin-3-yl)-3-(4-phenoxyphenyl)-1H-pyrazole-4-carboxamide], the IC50 came out at 10.4 nM in experiment [2] and 0.22 nM in experiment [1].
As to `CN1CC=C(C(=O)N2CCCC(n3nc(-c4ccc(Oc5ccccc5)cc4)c(C(N)=O)c3N)C2)CC1` (stereo not shown) [Compound I-7, 5-Amino-1-(1-(1-methyl-1,2,3,6-tetrahydropyridine-4-carbonyl)piperidin-3-yl)-3-(4-phenoxyphenyl)-1H-pyrazole-4-carboxamide], the IC50 in experiment [1] is 14 nM.
For the compound `C=CC(=O)N1CCC(N2CCc3c(c(N)c(C(N)=O)n3-c3ccc(Oc4ccccc4)cc3)C2)C1` (stereo not shown) [II-2, 5-(1-Acryloylpyrrolidin-3-yl)-3-amino-1-(4-phenoxyphenyl)-4,5,6,7-tetrahydro-1H-pyrrolo[3,2-c]pyridine-2-carboxamide], the IC50 in experiment [1] turned out to be 3200 nM.
As for `C=CS(=O)(=O)N1CCCC(n2nc(-c3ccc(Oc4ccccc4)cc3)c(C(N)=O)c2N)C1` (stereo not shown) [Compound I-8, 5-Amino-3-(4-phenoxyphenyl)-1-(1-(vinylsulfonyl)piperidin-3-yl)-1H-pyrazole-4-carboxamide], in experiment [1], the IC50 came to 0.23 nM.
Turning to `C=CC(=O)Nc1ccc2c(c1)c(N)c(C(N)=O)n2-c1ccc(Oc2ccccc2)cc1` [II-7, 5-Acrylamido-3-amino-1-(4-phenoxyphenyl)-1H-indole-2-carboxamide], the IC50 in experiment [2] amounted to 55.6 nM; in experiment [1] it was 9.4 nM.
With `C=CC(=O)N1CCC[C@@H](n2nc(-c3ccc(Cl)c(OC)c3)c(C(N)=O)c2N)C1` [Compound I-21, (R)-1-(1-Acryloylpiperidin-3-yl)-5-amino-3-(4-chloro-3-methoxyphenyl)-1H-pyrazole-4-carboxamide], the IC50 in experiment [1] came out at 0.18 nM.

For the origin of these results see US20150005277A1, “Protein Kinase Inhibitors and Uses Thereof” (Beigene, Ltd., priority 2013, published 2015).
